This is an account of results in patent US11884706B2, “Immunomodulating peptide derived from concave-eared torrent frog and use thereof” (priority 2019, dated 2024).

For assay [1], the system named is mouse neutrophils. As to the kind of experiment: Transwell migration in co-incubation system with BMDMs in lower chamber. It is filed as cell-based. The note with it: 25-100 μg/mL, 8 h. As to the method:
(§1) In a co-incubation system, mouse bone marrow-derived macrophages (BMDMs, 4×10^6 cells/mL, 500 μL) resuspended in RPMI 1640 medium containing 2% FBS were plated in the lower chamber (24-well plate) of the co-incubation chamber. After adherence, the prepared mouse neutrophils (7×10^6 cells/mL, 100 μL) or bone marrow-derived macrophages (BMDMs, 7×10^6 cells/mL, 100 μL) were added to the Transwell chamber with a pore size of 3.0 μm (upper chamber, 24-well plate). Then 500 μL of Ot-WHP (25, 50, 100 μg/mL, dissolved in RPMI 1640 medium containing 2% FBS) or the culture medium (control) was added to the lower chamber, and then cultured in a cell incubator at 37° C. for 8 h. The cells in the upper chamber were collected and counted with a hemocytometer. The reduced cells in the upper chamber are the migrated cells

Assay [2] deals with NF-κB (IκBα, p65 subunit). As to the kind of experiment: Activation of NF-κB signaling in BMDMs. The note with it: BMDMs, 0, 25, 50, 100 μg/mL, 30 min. It is filed as cell-based, mouse. As to the method:
Mouse bone marrow-derived macrophages (BMDMs) were inoculated into a 6-well plate and cultured without serum for 16 h. For the detection of MAPKs and NF-κB, BMDMs were incubated with different concentrations of Ot-WHP (0, 25, 50, 100 μg/mL) for 30 min. For the detection of TGF-β/Smad signaling pathway, BMDMs were incubated with different concentrations of Ot-WHP (0, 25, 50, 100 μg/mL) for 24 h, or BMDMs were incubated with 100 μg/mL Ot-WHP, with or without TGF-β1 antibody.

In assay [3] the test system is mouse fibroblasts. The experiment in a line: Fibroblast proliferation, direct (CCK-8). It is filed as cell-based. The note with it: mouse fibroblasts, 25, 50, 100 μg/mL, 72 h. How it is done: (§2) Keratinocytes HaCat and mouse fibroblasts (5×10^3 cells/well, 100 μL/well) were inoculated into a 96-well plate, and incubated with different concentrations of Ot-WHP (25, 50, and 100 μg/mL). PBS was used as a control. After HaCat was incubated with Ot-WHP for 24 h, and the fibroblasts were incubated with Ot-WHP for 72 h, 10 μl of Cell Counting Kit-8 (CCK-8) solution was added to each well, and incubated for another 2-4 h at 37° C. The absorbency at 450 nm was detected on a microplate reader.

Assay [4] concerns α-SMA in fibroblasts. The experiment in a line: α-SMA expression in fibroblasts by Western blot, direct. It is filed as cell-based, mouse. The note with it: fibroblasts alone, treated as in Example 8. As to the method:
as §2
The method was the same as that in Example 8. The fibroblasts treated in Example 8 were lysed with RIPA cell lysis solution. The protein was extracted, and the expression of α-SMA was detected by Western blot. A higher expression level of α-SMA means a higher transformation of fibroblasts into […]. The supernatant of the fibroblasts treated in Example 8 was collected, and the production of collagen in the supernatant was quantitatively detected with an ELISA kit.

For assay [5], the system named is neutrophils. The experiment in a line: Immunohistochemical count of neutrophils (anti-Ly6G) recruited to the wound. It is filed as in vivo, mice. The settings on record: natural Ot-WHP dripped to wound; days 0.5 and 1 after operation; vs negative control. How it is done:
The mice were treated according to the method in Example 3. The drugs in the negative control group and the natural Ot-WHP group were dripped to wounds of corresponding mice. At specified time point (0.5, 1, 2, 3 days) after the operation, the mice were sacrificed. A biopsy tissue containing the wound center was taken, immobilized with 10% formalin, then dehydrated by ethanol, washed with xylene, and finally embedded in paraffin. The paraffin block was cut into 5 μm slices, deparaffinized, and hydrated, and antigen retrieval was performed for immunohistochemical analysis. The slice was blocked with 5% BSA for non-specific sites, incubated with the primary antibody (anti-Ly6G for neutrophils, and anti-F4/80 for macrophages) at 4° C., and immunostained with horseradish peroxidase and DBA. The infiltration by neutrophils and macrophages was measured by statistically counting the immunostained anti-Ly6G and anti-F4/80 cells.
FIGS. 4A1-A4 show the immunohistochemical results of neutrophils recruited on days 0.5 and 1 after operation of mice in different groups. FIGS. 4C1-C4 show the immunohistochemical results of macrophages recruited on days 2 and 3 after operation of mice in different groups. FIGS. 4B1-B2 show the statistical results of neutrophils recruited on days 0.5 and 1 after operation of mice in different groups. […]

The subject of assay [6] is mouse skin wounds. The experiment in a line: Skin wound healing in mice (8 mm biopsy punch wound on the back). The format is in vivo, BALB/c mice. The note with it: 20 μL, 200 μg/mL dripped into wound once a day for 8 days; days 2, 4, 6, 8 after operation; vs PBS. How it is done:
Experimental animals BALB/c mice, female, 6-8 weeks old, weighed 18-20 g, were purchased from Shanghai Slac Animal Co., Ltd. The mice were anesthetized by intraperitoneal injection of 2% sodium pentobarbital (0.1 mL/20 g), and the back was shaved with an electric razor and disinfected with iodophor. A hole was punched in the exposed back by a biopsy punch having a diameter of 8 mm. After the operation, the mice were kept in separate cages until the end of the experiment. The mice were randomly divided into 6 groups having 5 animals in each group, including a negative control group (20 μL PBS), a natural Ot-WHP group (20 μL, 200 μg/mL), a synthetic Ot-WHP group (20 μL, 200 μg/mL), a scrambled Ot-WHP group (SEQ ID NO:2, 20 μL, 200 μg/mL), an AH90 positive polypeptide control group (20 μL, 200 μg/mL), and an EGF growth factor control group (20 μL, 100 μg/mL). The drugs were dripped into corresponding wounds in mice once a day for 8 days.
FIGS. 3A1-A4 show the wound healing rate of mice in different experimental groups at 2, 4, 6, and 8 days after surgery. In the figures, Vehicle represents the negative control group; synthetic Ot-WHP represents the synthetic Ot-WHP group; Natural Ot-WHP represents the natural Ot-WHP group; and Scrambled Ot-WHP represents the scrambled Ot-WHP group.

The subject of assay [7] is bone marrow-derived macrophages (BMDMs). The experiment in a line: Transwell migration in co-incubation system with BMDMs in lower chamber. The format is cell-based, mouse. The note with it: 25-100 μg/mL, 8 h. How it is done: as §1
Assay [8] deals with mouse neutrophils. As to the kind of experiment: Transwell migration, direct (peptide in lower chamber). The note with it: 25-100 μg/mL, 8 h, no macrophages in lower chamber. The format is cell-based. As to the method:
To clarify how Ot-WHP chemoattracts neutrophils and macrophages to the wound area, the prepared mouse neutrophils or bone marrow-derived macrophages (BMDMs) were resuspended in RPMI 1640 medium containing 2% FBS at a cell density of 7×10^6 cells/mL. 100 μL was pipetted to a Transwell chamber with a pore size of 3.0 μm (upper chamber, 24-well plate). Then 500 μL of Ot-WHP (25, 50, 100 μg/mL, dissolved in RPMI 1640 medium containing 2% FBS) or the culture medium (control) was pipetted to the lower chamber, and then cultured in a cell incubator at 37° C. for 8 h. The cells in the lower chamber were collected and counted with a hemocytometer.

As for “Ot-WHP: immunomodulating peptide of 24 amino acids from concave-eared torrent frog skin, sequence ATAWDLGPHGIRPLRPIRIRPLCG (SEQ ID NO:1); natural (purified) or chemically synthesized (Ot-WHP Peptide; listed as Odorrana tormota)”, the “migration of neutrophils when macrophages coexist” value in assay [1] was “significantly causes the migration”. Moreover, the “activation of NF-κB (IκBα, p65 subunit) signaling pathway” value in assay [2] is “activates”. Besides, the “proliferation of fibroblasts, direct” value in assay [3] was “cannot directly promote the proliferation”. Besides, the “expression of α-SMA in fibroblasts (transformation into fibrocytes), direct” value in assay [4] was “no direct effect on the expression of α-SMA in fibroblasts”. The “migration of neutrophils to the wound” value in assay [5] was “promote the migration of neutrophils and macrophages to the wound”. The “healing of mouse skin wounds (wound healing rate)” value in assay [6] is “significantly promote the healing of mouse skin wounds with an effect comparable to AH90 and EGF”. Besides, the “migration of macrophages when macrophages coexist” value in assay [7] is listed as “significantly causes the migration”. Besides, the “migration of neutrophils, direct” value in assay [8] was “does not directly cause the migration”.
